Measurements taken from patent US6924302B2, “Substituted triazole diamine derivatives as kinase inhibitors” (Ortho McNeil Pharmaceutical, Inc., priority 2000, dated 2005).

Columns and labels:
[1] = tested on: HeLa cervical adenocarcinoma; assay: Inhibition of Cell Proliferation (14C-thymidine incorporation), HeLa; type: cell-based; settings: Homo sapiens, HeLa cell line
Protocol: (§1) The ability of a test compound to inhibit the proliferation of cell growth was determined by measuring incorporation of ^14C-labelled thymidine into newly synthesized DNA within the cells. This method was used on cell lines derived from carcinomas originating from several tissues such as HeLa cervical adenocarcinoma (American Type Culture Collection (ATCC), Virginia, Cat. #CCL-2), A375 malignant melanoma (ATCC CRL-1619), SK-OV-3 ovarian adenocarcinoma (ATCC HTB-77) HCT-116 colon carcinoma (CCL-247), PC-3 prostate adenocarcinoma (ATCC CRL-1435), and MDA-MB-231 (Xenogen Corp.) In this way the effect of a compound on cell growth of cells with many different phenotypes can be determined. Cells were trypsinized and counted and 3000-8000 cells were added to each well of a 96-well CytoStar tissue culture treated scintillating microplate (Amersham #RPNQ0160) in complete medium in a volume of 100 μl. Cells were incubated for 24 hours in complete medium at 37° C. in an atmosphere containing 5% CO2. Next, 1 μl of test compound in 100% DMSO was added to the wells of the plate. DMSO only was added to control wells. Cells were incubated for 24 more hours in complete medium at 37° C. in an atmosphere containing 5% CO2. Methyl ^14C-thymidine 56 mCi/mmol (NEN #NEC568 or Amersham #CFA532) was diluted in complete medium and 0.2 uCi/well was added to each well of the CytoStar plate in a volume of 20 μl. The plate was incubated for 24 hours at 37° C. plus 5% CO2 in drug plus ^14C-thymidine. The contents of the plate were discarded into a ^14C radioactive waste container by inverting the plate and the plate was washed twice with 200 μl PBS. 200 μl of PBS is added to each well. The top of the plate was sealed with a transparent plate sealer and a white plate backing sealer (Packard #6005199) was applied to the bottom of the plate. The degree of methyl ^14C-thymidine incorporation was quantified on a Packard Top Count.

[2] = molecular target: T1, Calmodulin Kinase (calmodulin-dependent protein kinase 2) (Rattus norvegicus, UniProt P11275); assay: Kinase Selectivity Assay Calmodulin Kinase; type: biochemical; settings: Kinase Selectivity, Tables 2a-2k; read-out: Calmodulin Kinase 2 IC50
T1 construct: a truncated version of the alpha subunit of the rat protein; purchased New England Biolabs 6060; host or cells: insect cells
Procedure, shortened: (§2)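 Reactions ran one hour at 30° C in 1% DMSO with enzyme diluted in 50 mM Tris-HCl pH 8.0, 0.1% BSA. Scintillation counting read ^33P incorporated into immobilized biotinylated peptide.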

[3] = molecular target: T2, Casein Kinase 1 (CK1 delta isoform) (Rattus norvegicus, UniProt Q06486); assay: Kinase Selectivity Assay Casein Kinase 1; type: biochemical; settings: Tables 2a-2k, read-out: Caseine Kinase 1 IC50
T2 construct: a truncation at amino acid 318 of the C-terminal portion of the rat CK1 delta isoform; purchased New England Biolabs 6030; host or cells: E. coli
T2 sequence (Q06486 1-317): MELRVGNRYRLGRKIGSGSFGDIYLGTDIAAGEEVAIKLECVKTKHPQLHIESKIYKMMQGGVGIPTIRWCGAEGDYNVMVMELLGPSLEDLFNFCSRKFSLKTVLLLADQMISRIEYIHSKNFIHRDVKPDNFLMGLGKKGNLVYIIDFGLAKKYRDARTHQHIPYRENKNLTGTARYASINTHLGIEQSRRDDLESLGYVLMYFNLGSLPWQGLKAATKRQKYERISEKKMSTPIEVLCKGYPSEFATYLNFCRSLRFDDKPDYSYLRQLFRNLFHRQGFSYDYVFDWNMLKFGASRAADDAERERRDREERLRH
Protocol: Assays to test compound inhibition of other kinases were preformed using methods that measure the amount of phosphorylation of a biotinylated peptide substrate. Biotinylated peptide substrates were selected from the literature as appropriate for the enzyme being evaluated. […] Assay conditions vary slightly for each protein kinase, for example, insulin receptor kinase requires 10 mM MnCl2 for activity and Calmodulin-dependent protein kinase requires calmodulin and 10 mM CaCl2. These assay conditions are known in the art. The reaction mixture was dispensed into the wells of a streptavidin coated Flashplate and 1 μl drug stock in 100% DMSO was added to a 100 μl reaction volume resulting in a final concentration of 1% DMSO on the reaction. Enzyme was diluted in 50 mM Tris-HCl pH=8.0, 0.1% BSA and add to each well. The reaction was incubated for one hour at 30° C. in the presence of compound. After one hour the reaction mix was aspirated from the plate and the plate was washed with PBS containing 100 mM EDTA. The plate was read on a scintillation counter to determine ^33P-γ-ATP incorporated into the immobilized peptide. Test compounds were assayed in duplicate at 8 concentrations [100 uM, 10 uM, 1 uM, 100 nM, 10 nM, 1 nM, 100 pM, 10 pM]. A maximum and minimum signal for the assay was determined on each plate. The IC50 was calculated from the dose response curve of the percent inhibition of the maximum signal in the assay according to the formula [max signal—background/test compound signal—background (100)=% inhibition] by graphing the percent inhibition against the log concentration of test compound. Known inhibitor compounds appropriate for the kinase being assayed were also included on each plate.
CDK2 in complex with cyclin A is commercially available (Upstate Biotech, Lake Placid, N.Y.). The CDK4 complex was composed of a mouse CDK4 protein and a mouse Cyclin D1 protein (The mouse CDK4 protein was genetically fused to an N-terminal Flag-epitope tag and the mouse Cyclin D1 protein was fused with an N-terminal AU-1 epitope tag. The genes encoding these proteins were transferred to commercially available baculoviral vectors. The recombinant CDK4/D1 complex was then made by co-infecting commercially available insect cells with viruses carrying these two constructs). […] ERK-1 protein (Discontinued from Calbiochem). EGFR (epidermal growth factor receptor) is purified from human A431 cell membranes (Sigma, St. Louis, Mo., Cat.# E3641).

[4] = molecular target: T3, PDGF-R (platelet derived growth factor receptor) beta subunit kinase domain (Homo sapiens, UniProt P09619); assay: Kinase Selectivity Assay PDGF-R; type: biochemical; settings: Kinase Selectivity, Tables 2a-2k; read-out: PDGF-R kinase IC50
T3 construct: nucleotides 1874-3507 of the human PDGF-R beta subunit kinase domain; polyhistidine (N)
Procedure, shortened: as §2

[5] = molecular target: T4, MAP Kinase (ERK-2 isoform) (Rattus norvegicus, UniProt P63086); assay: Kinase Selectivity Assay MAP Kinase (ERK-2); type: biochemical; settings: Kinase Selectivity, Tables 2a-2k; read-out: ERK 2 IC50
T4 construct: polyhistidine (N); host or cells: E. coli
Procedure, shortened: as §2

[6] = tested on: HCT-116 colon carcinoma; assay: Inhibition of Cell Proliferation (14C-thymidine incorporation), HCT-116; type: cell-based; settings: Homo sapiens, HCT-116 cell line
Protocol: as §1

[7] = molecular target: T5, Protein Kinase A (Bos taurus, UniProt P00517); assay: Kinase Selectivity Assay Protein Kinase A; type: biochemical, bovine; settings: Kinase Selectivity, Tables 2a-2k; read-out: PKA IC50
T5 construct: purified from bovine heart; purchased Upstate Biotech 14-114; host or cells: bovine heart
Procedure, shortened: as §2

T3 sequence (P09619 564-1106): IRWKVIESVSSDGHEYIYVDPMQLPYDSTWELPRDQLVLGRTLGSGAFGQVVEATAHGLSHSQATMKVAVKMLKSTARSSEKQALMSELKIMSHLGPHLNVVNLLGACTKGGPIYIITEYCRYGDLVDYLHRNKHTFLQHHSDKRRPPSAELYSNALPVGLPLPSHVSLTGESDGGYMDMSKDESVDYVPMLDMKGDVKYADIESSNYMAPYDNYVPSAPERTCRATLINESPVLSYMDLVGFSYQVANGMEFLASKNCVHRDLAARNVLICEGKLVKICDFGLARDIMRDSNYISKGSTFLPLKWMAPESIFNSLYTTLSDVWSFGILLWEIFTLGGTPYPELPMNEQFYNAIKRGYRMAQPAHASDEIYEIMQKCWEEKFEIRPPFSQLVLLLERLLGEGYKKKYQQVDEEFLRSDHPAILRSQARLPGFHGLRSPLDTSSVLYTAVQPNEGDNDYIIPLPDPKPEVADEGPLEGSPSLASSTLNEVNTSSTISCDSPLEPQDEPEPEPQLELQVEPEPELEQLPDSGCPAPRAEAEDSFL
T4 sequence (P63086 whole entry, canonical isoform): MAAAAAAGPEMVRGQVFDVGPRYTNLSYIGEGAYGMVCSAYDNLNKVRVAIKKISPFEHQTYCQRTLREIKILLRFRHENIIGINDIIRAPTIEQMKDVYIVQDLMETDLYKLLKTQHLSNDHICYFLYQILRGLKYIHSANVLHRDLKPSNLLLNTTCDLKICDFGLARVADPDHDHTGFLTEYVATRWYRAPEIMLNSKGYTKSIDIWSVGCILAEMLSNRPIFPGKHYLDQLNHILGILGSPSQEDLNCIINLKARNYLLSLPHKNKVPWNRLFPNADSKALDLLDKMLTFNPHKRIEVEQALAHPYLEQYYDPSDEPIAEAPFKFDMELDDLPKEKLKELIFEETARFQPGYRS

Nc1nc(Nc2ccc(S(N)(=O)=O)cc2)nn1C(=O)c1sccc1F [Cpd 16, 4-[[5-amino-1-[(3-fluoro-2-thienyl)carbonyl]-1H-1,2,4-triazol-3-yl]amino]-benzenesulfonamide]
IC50 [1]: 263 nM
IC50 [2]: > 100000 nM
IC50 [3]: 214 nM
IC50 [4]: 100 nM
IC50 [5]: 390 nM
IC50 [6]: 213 nM

CCc1ccc(C(=O)n2nc(Nc3ccc(S(=O)(=O)NC)cc3)nc2N)s1 [Cpd 84, 4-[[5-amino-1-[(5-ethyl-2-thienyl)carbonyl]-1H-1,2,4-triazol-3-yl]amino]-N-methyl-benzenesulfonamide]
IC50 [1]: 142 nM
IC50 [7]: 2200 nM
IC50 [2]: > 100000 nM
IC50 [3]: 188 nM
IC50 [4]: 280 nM
IC50 [5]: 1220 nM

Nc1nc(Nc2ccc(S(N)(=O)=O)cc2)nn1C(=O)c1c(F)cccc1F [Cpd 1, 4-[[5-amino-1-(2,6-difluorobenzoyl)-1H-1,2,4-triazol-3-yl]amino]-benzenesulfonamide]
IC50 [1]: 284 nM
IC50 [7]: > 100000 nM
IC50 [2]: > 100000 nM
IC50 [6]: 254 nM

Cc1ccsc1C(=O)n1nc(Nc2ccc(S(=O)(=O)NCCN(C)C)cc2)nc1N [Cpd 104, 4-[[5-amino-1-[(3-methyl-2-thienyl)carbonyl]-1H-1,2,4-triazol-3-yl]amino]-N-[2-(dimethylamino)ethyl]-benzenesulfonamide]
IC50 [1]: 186 nM
IC50 [7]: > 100000 nM
IC50 [2]: > 10000 nM
IC50 [3]: 624 nM
IC50 [4]: 192 nM
IC50 [5]: > 100000 nM
IC50 [6]: 41 nM

Cc1ccsc1C(=O)n1nc(Nc2ccc(N3CCNC3=O)cc2)nc1N [Cpd 113, 1-[4-[[5-amino-1-[(3-methyl-2-thienyl)carbonyl]-1H-1,2,4-triazol-3-yl]amino]phenyl]-2-imidazolidinone]
IC50 [1]: 242 nM
IC50 [7]: > 100000 nM
IC50 [2]: > 10000 nM
IC50 [3]: 318 nM
IC50 [4]: 370 nM
IC50 [5]: > 100000 nM
IC50 [6]: 281 nM

CC(O)c1ccc(F)c(C(=O)n2nc(Nc3ccc(S(N)(=O)=O)cc3)nc2N)c1F (stereo not drawn) [Cpd 58, 4-[[5-amino-1-[2,6-difluoro-3-(1-hydroxyethyl)benzoyl]-1H-1,2,4-triazol-3-yl]amino]-benzenesulfonamide]
IC50 [1]: 186 nM
IC50 [7]: > 100000 nM
IC50 [2]: > 100000 nM
IC50 [3]: 11200 nM
IC50 [4]: 8530 nM
IC50 [5]: 10700 nM
IC50 [6]: 1270 nM

Cc1nc(C)c(C(=O)n2nc(Nc3ccc(S(N)(=O)=O)cc3)nc2N)s1 [Cpd 34, 4-[[5-amino-1-[(2,4-dimethyl-5-thiazolyl)carbonyl]-1H-1,2,4-triazol-3-yl]amino]-benzenesulfonamide]
IC50 [1]: 707 nM
IC50 [7]: > 100000 nM
IC50 [2]: > 100000 nM
IC50 [3]: 182 nM
IC50 [4]: 292 nM
IC50 [5]: > 10000 nM
IC50 [6]: 996 nM

CC(C)(C)c1ccc(C(=O)n2nc(Nc3ccc(S(N)(=O)=O)cc3)nc2N)s1 [Cpd 51, 4-[[5-amino-1-[[5-(1,1-dimethylethyl)-2-thienyl]carbonyl]-1H-1,2,4-triazol-3-yl]amino]-benzenesulfonamide]
IC50 [1]: 220 nM
IC50 [7]: 911 nM
IC50 [2]: 813 nM
IC50 [3]: 223 nM
IC50 [4]: 199 nM
IC50 [5]: 928 nM

CN1CCN(c2ccc(Nc3nc(N)n(C(=O)c4c(F)cccc4F)n3)cc2)CC1 [Cpd 71, 1-(2,6-difluorobenzoyl)-N^3-[4-(4-methyl-1-piperazinyl)phenyl]-1H-1,2,4-triazole-3,5-diamine]
IC50 [1]: 1920 nM
IC50 [7]: > 100000 nM
IC50 [2]: 60900 nM
IC50 [3]: > 100000 nM
IC50 [4]: 27000 nM
IC50 [5]: > 100000 nM

CNS(=O)(=O)c1ccc(Nc2nc(N)n(C(=O)c3sccc3C)n2)cc1 [Cpd 82, 4-[[5-amino-1-[(3-methyl-2-thienyl)carbonyl]-1H-1,2,4-triazol-3-yl]amino]-N-methyl-benzenesulfonamide]
IC50 [1]: 245 nM
IC50 [7]: > 100000 nM
IC50 [2]: > 100000 nM
IC50 [3]: 354 nM
IC50 [4]: 42 nM
IC50 [5]: 1950 nM

Nc1nc(Nc2ccc(S(N)(=O)=O)cc2)nn1C(=O)c1ccsc1 [Cpd 30, 4-[[5-amino-1-(3-thienylcarbonyl)-1H-1,2,4-triazol-3-yl]amino]-benzenesulfonamide]
IC50 [1]: 215 nM
IC50 [2]: 88300 nM
IC50 [3]: 1540 nM
IC50 [4]: 392 nM
IC50 [5]: 5930 nM
IC50 [6]: 1930 nM

Cc1cc(C)c(C(=O)n2nc(Nc3ccc(NS(C)(=O)=O)cc3)nc2N)s1 [Cpd 108, N-[4-[[5-amino-1-[(3,5-dimethyl-2-thienyl)carbonyl]-1H-1,2,4-triazol-3-5 yl]amino]phenyl]-methanesulfonamide]
IC50 [2]: > 10000 nM
IC50 [3]: 816 nM
IC50 [4]: 217 nM
IC50 [5]: 2390 nM

Nc1nc(Nc2ccc(S(N)(=O)=O)cc2)nn1C(=O)c1sccc1Cl [Cpd 17, 4-[[5-amino-1-[(3-chloro-2-thienyl)carbonyl]-1H-1,2,4-triazol-3-yl]amino]-benzenesulfonamide]
IC50 [1]: 215 nM
IC50 [2]: 2800 nM
IC50 [3]: 643 nM
IC50 [4]: 81 nM
IC50 [5]: 1870 nM
IC50 [6]: 309 nM

Nc1nc(Nc2ccc(S(N)(=O)=O)cc2)nn1C(=O)c1sccc1Br [Cpd 35, 4-[[5-amino-1-[(3-bromo-2-thienyl)carbonyl]-1H-1,2,4-triazol-3-yl]amino]-benzenesulfonamide]
IC50 [1]: 663 nM
IC50 [6]: 172 nM

CNS(=O)(=O)c1ccc(Nc2nc(N)n(C(=O)c3c(F)cccc3F)n2)cc1 [Cpd 80, 4-[[5-amino-1-(2,6-difluorobenzoyl)-1H-1,2,4-triazol-3-yl]amino]-N-methyl-benzenesulfonamide]
IC50 [1]: 880 nM
